For one data set, the target named is human 5-HT2A receptor (Homo sapiens (Human), UniProt P28223). The data set is described as follows: Radioligand binding assay, [3H]-ketanserin, human 5-HT2A receptor. In outline:
(§1)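 Incubation was 1 h at RT, using 1.1 nM [3H]-ketanserin at 5-HT2A or 0.5 nM [3H]-spiperone at D3, on membranes of transiently transfected HEK293 EBNA cells. Nonspecific binding was set with 10 μM unlabelled spiperone.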

Another data set has as its target human D3 receptor (Homo sapiens (Human), UniProt P35462). The data set is described as follows: Radioligand binding assay, [3H]-spiperone, human D3 receptor. Conditions: membranes of HEK293 EBNA cells expressing human D3; 0.5 nM [3H]-spiperone. In outline:
as §1

The target of the next data set is human D2 receptor (Homo sapiens (Human), UniProt P14416). In words: Radioligand binding assay, [3H]-spiperone, human D2 receptor. The following applies: membranes of HEK293 EBNA cells expressing human D2; 0.7 nM [3H]-spiperone. In outline: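 Competition binding used ~0.7 nM [3H]-spiperone, 1 h at room temperature, pH 7.4 Tris/salt buffer, on transiently transfected HEK293 EBNA membranes bearing human D2.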
human D2 receptor, sequence (P14416 whole entry): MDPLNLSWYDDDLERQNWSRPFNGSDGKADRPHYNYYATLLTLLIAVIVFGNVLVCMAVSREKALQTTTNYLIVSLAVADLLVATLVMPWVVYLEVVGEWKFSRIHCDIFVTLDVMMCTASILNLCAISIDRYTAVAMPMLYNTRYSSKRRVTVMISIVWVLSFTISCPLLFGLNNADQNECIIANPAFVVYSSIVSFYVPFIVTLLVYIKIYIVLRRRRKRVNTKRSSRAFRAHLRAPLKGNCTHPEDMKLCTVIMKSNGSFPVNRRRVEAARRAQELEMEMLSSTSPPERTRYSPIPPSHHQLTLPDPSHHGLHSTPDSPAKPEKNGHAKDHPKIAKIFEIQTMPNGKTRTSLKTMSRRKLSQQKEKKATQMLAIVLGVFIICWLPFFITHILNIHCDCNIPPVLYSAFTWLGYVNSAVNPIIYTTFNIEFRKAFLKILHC

[1] abbreviates: membranes of HEK293 EBNA cells expressing human 5-HT2A, 1.1 nM [3H]-ketanserin.

Where two headings read alike, the source gives them in different places.

human 5-HT2A receptor, sequence (P28223 whole entry): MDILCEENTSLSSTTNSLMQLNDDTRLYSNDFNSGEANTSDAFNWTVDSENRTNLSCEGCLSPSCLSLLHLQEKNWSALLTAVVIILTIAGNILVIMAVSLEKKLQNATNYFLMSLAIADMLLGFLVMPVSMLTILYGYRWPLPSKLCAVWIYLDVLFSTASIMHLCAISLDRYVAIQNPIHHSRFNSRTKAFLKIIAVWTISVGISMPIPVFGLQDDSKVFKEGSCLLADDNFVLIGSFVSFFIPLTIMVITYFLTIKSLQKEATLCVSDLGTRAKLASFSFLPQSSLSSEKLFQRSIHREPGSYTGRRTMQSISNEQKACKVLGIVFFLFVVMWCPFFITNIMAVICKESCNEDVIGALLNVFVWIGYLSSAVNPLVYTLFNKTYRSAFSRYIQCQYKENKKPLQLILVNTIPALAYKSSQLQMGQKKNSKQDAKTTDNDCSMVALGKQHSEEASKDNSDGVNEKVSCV
human D3 receptor, sequence (P35462 whole entry): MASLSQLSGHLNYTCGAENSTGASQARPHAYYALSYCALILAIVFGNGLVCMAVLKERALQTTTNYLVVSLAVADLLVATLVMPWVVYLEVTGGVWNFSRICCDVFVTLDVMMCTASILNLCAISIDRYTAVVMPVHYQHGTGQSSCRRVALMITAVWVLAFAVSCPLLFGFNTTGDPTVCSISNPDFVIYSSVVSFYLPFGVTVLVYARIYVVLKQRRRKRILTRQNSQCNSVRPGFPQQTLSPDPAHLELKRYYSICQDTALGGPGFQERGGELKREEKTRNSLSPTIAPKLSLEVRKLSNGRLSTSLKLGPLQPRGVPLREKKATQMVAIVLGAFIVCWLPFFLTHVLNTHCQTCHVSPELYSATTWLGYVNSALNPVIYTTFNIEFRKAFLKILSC

Turning to `CC(C)CCC(=O)N[C@H]1CC[C@H](CCN2CCN(c3nccc4c3CCO4)CC2)CC1` [Example 93, 4-Methyl-pentanoic acid trans-(4-{2-[4-(2,3-dihydro-furo[3,2-c]pyridin-4-yl)-piperazin-1-yl]-ethyl}-cyclohexyl)-amide], the melting point (commonly the temperature of the solid-liquid transition) is 182.5 °C. The Ki (usually a dissociation constant, usually derived from enzyme kinetics or from competition with a known ligand) on human 5-HT2A receptor (setting [1]) is 24.6 nM. The Ki at human D3 receptor turned out to be 22.7 nM. In addition, the Ki at human D2 receptor came to 1280 nM.

Turning to `O=C(N[C@H]1CC[C@H](CCN2CCN(c3nccc4c3CCO4)CC2)CC1)c1ccc(N2CCOCC2)nc1` [Example 119, trans-N-(4-{2-[4-(2,3-Dihydro-furo[3,2-c]pyridin-4-yl)-piperazin-1-yl]-ethyl}-cyclohexyl)-6-morpholin-4-yl-nicotinamide], the melting point is 222 °C. In addition, the Ki on human 5-HT2A receptor came to 15.6 nM. Also, the Ki at human D3 receptor was determined as 44.7 nM. Moreover, the Ki on human D2 receptor was 998 nM.

`O=C(Cc1ccc2c(c1)OCO2)N[C@H]1CC[C@H](CCN2CCN(c3nccc4c3CCO4)CC2)CC1` [Example 122, trans-2-Benzo[1,3]dioxol-5-yl-N-(4-{2-[4-(2,3-dihydro-furo[3,2-c]pyridin-4-yl)-piperazin-1-yl]-ethyl}-cyclohexyl)-acetamide] yielded a melting point of 212 °C. For the same molecule, the Ki at human 5-HT2A receptor (setting [1]) is 33.7 nM. In addition, on human D3 receptor, the Ki was 18.6 nM. The Ki at human D2 receptor is 3040 nM.

Molecule `O=C(N[C@H]1CC[C@H](CCN2CCN(c3nccc4c3CCO4)CC2)CC1)c1cnc(N2CCOCC2)cn1` [Example 130, 5-Morpholin-4-yl-pyrazine-2-carboxylic acid trans-(4-{2-[4-(2,3-dihydro-furo[3,2-c]pyridin-4-yl)-piperazin-1-yl]-ethyl}-cyclohexyl)-amide] yielded a melting point of 192.5 °C. Moreover, at human 5-HT2A receptor (setting [1]), the Ki turned out to be 18.4 nM. For the same molecule, on human D3 receptor, the Ki worked out at 119 nM. Also, the inhibition constant Ki at human D2 receptor was 506 nM.

Molecule `O=C(N[C@H]1CC[C@H](CCN2CCN(c3nccc4c3CCO4)CC2)CC1)c1ccc(-n2cccc2)cc1` [Example 133, trans-N-(4-{2-[4-(2,3-Dihydro-furo[3,2-c]pyridin-4-yl)-piperazin-1-yl]-ethyl}-cyclohexyl)-4-pyrrol-1-yl-benzamide] returned a melting point of 234 °C. On human 5-HT2A receptor (setting [1]), the Ki amounted to 24.2 nM. Besides, the Ki at human D3 receptor was determined as 24.4 nM. Moreover, the Ki at human D2 receptor is 163 nM.

As to `O=C(N[C@H]1CC[C@H](CCN2CCN(c3nccc4c3CCO4)CC2)CC1)c1ccc(N2CCOCC2)cc1` [Example 57, trans-N-(4-{2-[4-(2,3-Dihydro-furo[3,2-c]pyridin-4-yl)-piperazin-1-yl]-ethyl}-cyclohexyl)-4-morpholin-4-yl-benzamide], the melting point stood at 228.5 °C. Further, on human 5-HT2A receptor (setting [1]), the Ki came out at 4.52 nM. For the same molecule, the Ki at human D3 receptor came to 16.9 nM. Moreover, the Ki at human D2 receptor stood at 867 nM.

Take `O=C(CC1CCCO1)N[C@H]1CC[C@H](CCN2CCN(c3nccc4c3CCO4)CC2)CC1` (mixture of isomers) [Example 64, trans-N-(4-{2-[4-(2,3-Dihydro-furo[3,2-c]pyridin-4-yl)-piperazin-1-yl]-ethyl}-cyclohexyl)-2-rac-(tetrahydro-furan-2-yl)-acetamide]: the melting point amounted to 181.5 °C. Further, the Ki at human 5-HT2A receptor (setting [1]) was found to be 16.7 nM. Besides, the Ki on human D3 receptor stood at 24.2 nM. The inhibition constant Ki at human D2 receptor was determined as 1260 nM.

For `CC(C)CC(=O)N[C@H]1CC[C@H](CCN2CCN(c3nccc4c3CCO4)CC2)CC1` [Example 71, trans-N-(4-{2-[4-(2,3-Dihydro-furo[3,2-c]pyridin-4-yl)-piperazin-1-yl]-ethyl}-cyclohexyl)-3-methyl-butyramide], the melting point came out at 202.5 °C. Besides, the Ki at human 5-HT2A receptor (setting [1]) is 15.7 nM. Besides, on human D3 receptor, the Ki is 10.9 nM. Besides, on human D2 receptor, the inhibition constant Ki was 655 nM.

Molecule `O=C(CC1CC1)N[C@H]1CC[C@H](CCN2CCN(c3nccc4c3CCO4)CC2)CC1` [Example 51, trans-2-Cyclopropyl-N-(4-{2-[4-(2,3-dihydro-furo[3,2-c]pyridin-4-yl)-piperazin-1-yl]-ethyl}-cyclohexyl)-acetamide] showed a melting point of 193 °C. Besides, on human 5-HT2A receptor, the inhibitory constant (Ki) came out at 13.7 nM. In addition, the Ki on human D3 receptor worked out at 5.07 nM. Also, the Ki on human D2 receptor was 587 nM.

For the molecule `CCCC(=O)N[C@H]1CC[C@H](CCN2CCN(c3nccc4c3CCO4)CC2)CC1` [Example 92, trans-N-(4-{2-[4-(2,3-Dihydro-furo[3,2-c]pyridin-4-yl)-piperazin-1-yl]-ethyl}-cyclohexyl)-butyramide], the melting point worked out at 191 °C. For the same molecule, the Ki at human 5-HT2A receptor (setting [1]) is 23.1 nM. Further, at human D3 receptor, the Ki came out at 15.4 nM. Moreover, the Ki at human D2 receptor turned out to be 828 nM.

Take `Cc1cnc(N2CCN(CC[C@H]3CC[C@H](NC(=O)CC4CCOCC4)CC3)CC2)c2c1OCC2` [Example 110, trans-N-(4-{2-[4-(7-Methyl-2,3-dihydro-furo[3,2-c]pyridin-4-yl)-piperazin-1-yl]-ethyl}-cyclohexyl)-2-(tetrahydro-pyran-4-yl)-acetamide]: the melting point was 199 °C. Moreover, the Ki on human 5-HT2A receptor (setting [1]) was 44 nM. Also, on human D3 receptor, the Ki came out at 69.4 nM. For the same molecule, at human D2 receptor, the Ki worked out at 2950 nM.

For the molecule `C[C@]1(O)CC[C@@H](C(=O)N[C@H]2CC[C@H](CCN3CCN(c4nccc5c4CCO5)CC3)CC2)CC1` [Example 55, cis-4-Hydroxy-4-methyl-cyclohexanecarboxylic acid trans-(4-{2-[4-(2,3-dihydro-furo[3,2-c]pyridin-4-yl)-piperazin-1-yl]-ethyl}-cyclohexyl)-amide], the melting point was 216.5 °C. Further, the Ki at human 5-HT2A receptor (setting [1]) is 6.14 nM. At human D3 receptor, the Ki stood at 45.3 nM. Moreover, the Ki at human D2 receptor came to 475 nM.

Regarding `CN1CCN(c2ccc(C(=O)N[C@H]3CC[C@H](CCN4CCN(c5nccc6c5CCO6)CC4)CC3)cc2)CC1` [Example 118, trans-N-(4-{2-[4-(2,3-Dihydro-furo[3,2-c]pyridin-4-yl)-piperazin-1-yl]-ethyl}-cyclohexyl)-4-(4-methyl-piperazin-1-yl)-benzamide], the melting point amounted to 236 °C. For the same molecule, the Ki at human 5-HT2A receptor (setting [1]) turned out to be 4.51 nM. Further, the Ki at human D3 receptor worked out at 14.7 nM. The Ki on human D2 receptor came to 180 nM.

For the molecule `O=CN[C@H]1CC[C@H](CCN2CCN(c3nccc4c3CCO4)CC2)CC1` [Example 83, trans-N-(4-{2-[4-(2,3-Dihydro-furo[3,2-c]pyridin-4-yl)-piperazin-1-yl]-ethyl}-cyclohexyl)-formamide], the melting point was 170.5 °C. Moreover, the Ki at human 5-HT2A receptor (setting [1]) amounted to 23.5 nM. For the same molecule, at human D3 receptor, the Ki worked out at 28 nM. Besides, the Ki at human D2 receptor was found to be 837 nM.

Source of the values: patent US8586579B2, “Anellated pyridine compounds” (Hoffmann-La Roche Inc., priority 2010, dated 2013).
